Results: US8604004B2, “Moenomycin analogs, methods of synthesis, and uses thereof” (President and Fellows of Harvard College, priority 2007, dated 2013)
In brackets after ≈: the same amount, converted by molar mass. Read-outs that look alike come from different tables or passages of the source.

Columns and labels:
[1] = test system: S. aureus, bacterial strain 29213; assay: MIC, standard microdilution assay, S. aureus; type: cell-based; details: Staphylococcus aureus, no visible growth after 35° C. for 22 h, read-out: MIC (μg/ml) S. aureus
Source text: (§1) MIC values (μg/mL) were obtained using a standard microdilution assay.

[2] = cited from earlier work
[3] = target: T1, E. faecalis PBP2a (Enterococcus faecalis, UniProt Q837Z4); assay: IC50 for transglycosylase inhibition, E. faecalis PBP2a, [14C]-GlcNAc-labeled lipid II analogue; type: biochemical
T1 sequence (Q837Z4 1-728): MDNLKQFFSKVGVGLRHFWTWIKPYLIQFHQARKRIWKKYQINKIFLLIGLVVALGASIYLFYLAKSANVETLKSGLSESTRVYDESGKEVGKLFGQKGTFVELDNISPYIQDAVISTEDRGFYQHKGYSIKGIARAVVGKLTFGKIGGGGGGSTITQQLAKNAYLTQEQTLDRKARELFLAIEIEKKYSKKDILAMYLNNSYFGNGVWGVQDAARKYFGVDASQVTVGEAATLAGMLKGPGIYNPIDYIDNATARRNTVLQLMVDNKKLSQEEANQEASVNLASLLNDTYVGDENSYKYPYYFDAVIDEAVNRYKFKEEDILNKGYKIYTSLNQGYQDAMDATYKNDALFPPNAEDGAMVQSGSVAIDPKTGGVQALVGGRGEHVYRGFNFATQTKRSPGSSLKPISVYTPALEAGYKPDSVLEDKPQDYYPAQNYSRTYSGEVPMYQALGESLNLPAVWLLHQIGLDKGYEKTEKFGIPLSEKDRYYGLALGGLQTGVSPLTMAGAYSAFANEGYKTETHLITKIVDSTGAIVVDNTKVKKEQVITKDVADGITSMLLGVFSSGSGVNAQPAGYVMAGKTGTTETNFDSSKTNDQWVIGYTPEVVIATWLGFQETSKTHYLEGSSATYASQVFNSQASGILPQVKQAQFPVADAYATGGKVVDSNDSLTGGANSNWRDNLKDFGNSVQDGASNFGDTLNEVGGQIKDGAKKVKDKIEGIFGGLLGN
Source text: The pbp2a gene was PCR-amplified from E. faecalis (CL4877) purified genomic DNA using the following primer pair: 5′-[…] AATCTTAAACAATTTTTT-3′ (SEQ ID NO: 1) and 5′[…]-3′ (SEQ ID NO: 2). The first primer introduced a NdeI restriction site (underlined), and the second primer introduced a XhoI site into the PCR product. The PCR product was subcloned into pET42 (Novagen) for expression in E. coli BL21(DE3) (Novagen) as a C-terminal His8 fusion. PBP2a was expressed after induction of a log phase culture grown at 37° C. with 1 mM IPTG and grown at 15° C. for an additional 20 h. The cells were harvested by centrifugation, and the cell pellets were resuspended in buffer A (20 mM Tris-HCl, 150 mM NaCl, pH 7.4) supplemented with 360 kU of rLysozyme (Novagen). The cells were lysed using a French pressure cell at 16,000 psi in buffer A. Freely soluble proteins were decanted and the pellet resuspended in buffer A containing 0.5% Sarkosyl to release membrane-anchored PBP2a. […] Fractions were analyzed by 12% SDS-PAGE, pooled and concentrated using a Amicon Ultra Centrifuga Filter Device (50K MW cutoff). […]
IC50 Values for PBP2a. […] Products and starting material were separated using chromatography (isobutryic acid:1 N NH4OH=5:3) and quantitated by scintillation counting. […]

[4] = test system: bacteria; details: on a molar basis, cited from earlier work
[5] = target: T2, S. aureus PBP2 (Staphylococcus aureus, UniProt Q9R744); assay: IC50 for transglycosylase inhibition, S. aureus PBP2, [14C]-GlcNAc-labeled lipid II analogue; type: biochemical
T2 construct: made in house
T2 sequence (Q9R744 1-727): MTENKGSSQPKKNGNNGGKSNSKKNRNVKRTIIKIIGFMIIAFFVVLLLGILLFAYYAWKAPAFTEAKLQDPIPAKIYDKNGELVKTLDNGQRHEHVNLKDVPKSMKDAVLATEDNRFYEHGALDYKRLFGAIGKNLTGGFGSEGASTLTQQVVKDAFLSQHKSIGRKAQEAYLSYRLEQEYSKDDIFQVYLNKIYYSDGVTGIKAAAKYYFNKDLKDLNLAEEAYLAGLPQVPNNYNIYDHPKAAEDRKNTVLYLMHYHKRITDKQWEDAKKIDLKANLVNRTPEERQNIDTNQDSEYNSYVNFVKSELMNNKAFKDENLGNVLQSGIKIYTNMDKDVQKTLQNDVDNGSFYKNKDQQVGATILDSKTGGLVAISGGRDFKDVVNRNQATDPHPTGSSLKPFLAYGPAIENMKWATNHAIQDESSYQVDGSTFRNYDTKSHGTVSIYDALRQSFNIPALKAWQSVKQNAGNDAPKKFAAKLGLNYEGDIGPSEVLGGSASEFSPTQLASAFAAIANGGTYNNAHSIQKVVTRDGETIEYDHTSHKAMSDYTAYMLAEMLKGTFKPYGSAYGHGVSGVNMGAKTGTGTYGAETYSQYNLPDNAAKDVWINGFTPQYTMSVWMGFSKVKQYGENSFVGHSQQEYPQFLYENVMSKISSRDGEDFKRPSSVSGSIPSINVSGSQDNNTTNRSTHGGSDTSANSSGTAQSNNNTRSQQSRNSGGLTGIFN
Description: S. aureus PBP2 was over-expressed and purified as described^4,5. The IC50s for moenomycin and neryl compounds were carried out using the following reaction condition: (0-50 μM) and PBP2 (final concentration 30 nM) were incubated in Eppendorf tubes containing 9 μL of buffer [(50 mM HEPES buffer, 50 mM MOPS, 50 mM MES, 50 mM AcOH) at pH 5.0, 10 mM CaCl2, 20% DMSO (v/v), 250 unit/mL penicillin G] for 30 min. The reaction was initiated by adding 4 μM [^14C]-GlcNAc-labeled lipid II analogue^4 (specific activity=101 cpm/pmol) and quenched after 80 min with 10 μL of ice-cold 10 mM Tris (pH=8.0) containing 0.2% Triton X-100. The reaction mixture was immediately spotted on cellulose chromatography paper (3MM Whatmann). Products and starting material were separated using chromatography (isobutryic acid:1 N NH4OH=5:3) and quantitated by scintillation counting. The data were fit using Prism, as described^3,4.

[6] = test system: E. faecalis, bacterial strain 29212; assay: MIC, standard microdilution assay, E. faecalis; type: cell-based; details: Enterococcus faecalis, no visible growth after 35° C. for 22 h, read-out: MIC (μg/ml) E. faecalis
Source text: as §1

SMILES | MIC [1] | absorption upon oral administration ([2]; oral) | pharmacokinetic properties ([2]; related to the lipid side chain) | IC50 [3] | potency relative to vancomycin ([4]; listed as Moenomycin A) | potency relative to vancomycin ([4]; listed as moenomycin A) | IC50 [5] | MIC [6] | IC50 ([3]; PBP2a 52 nM, pH 7.5, 4 μM lipid II analogue, read-out: IC50 (μg/ml) E. faecalis PBP2a (converted))
C=C(C/C=C(\C)CCC=C(C)C)CCC(C)(C)/C=C/CC/C(C)=C\CO[C@H](COP(=O)(O)O[C@H]1OC(C(N)=O)[C@@](C)(O)[C@H](OC(N)=O)C1O[C@@H]1OC(CO[C@@H]2OC(CO)[C@@H](O)[C@H](O)C2O)[C@@H](O[C@@H]2OC(C)[C@@H](O[C@@H]3OC(C(=O)NC4=C(O)CCC4=O)[C@H](O)[C@H](O)C3O)[C@H](O)C2NC(C)=O)[C@H](O)C1NC(C)=O)C(=O)O (stereo partly drawn) [compound 1, Moenomycin A] | 0.016 µg/mL (≈ 0.0101 µM) | relatively poor | poor pharmacokinetic properties | 26.5 nM | a thousand times more potent than the antibiotic vancomycin | a thousand times more potent than vancomycin | 22.1 nM | 0.063 µg/mL (≈ 0.0398 µM) | –
CC(=O)NC1[C@H](O[C@@H]2C(CO[C@@H]3OC(CO)[C@@H](O)[C@H](O)C3O)O[C@@H](OC3[C@@H](OP(=O)(O)OC[C@@H](OC/C=C(/C)CCC=C(C)C)C(=O)O)OC(C(N)=O)[C@@](C)(O)[C@@H]3OC(N)=O)C(NC(C)=O)[C@H]2O)OC(C)[C@@H](O[C@@H]2OC(C(=O)NC3=C(O)CCC3=O)[C@H](O)[C@H](O)C2O)[C@@H]1O (stereo partly drawn) [compound 15] | > 250 µg/mL | – | – | – | – | – | 41.4 nM | > 250 µg/mL | 16 nM
